Consider 3 molecules from US10941157B2, “Pesticidal compositions and uses thereof” (Gilead Apollo, LLC, priority 2015, dated 2021).

Molecules are shown by their SMILES. Converted amounts (≈) assume the structure as drawn.

Assay [1] has as its system Puccinia triticina. The assay can be described thus: Foliar protection test for wheat leaf rust control. The settings on record: foliar application to wheat (Triticum aestivum cv. Winterhawk), evaluated 10 days later. Type of assay: in vivo.
In assay [2] the test system is Mycosphaerella graminicola (synthetic Septoria tritici). The experiment in a line: Foliar protection test for wheat septoria leaf blotch control. The settings on record: foliar spray on Triticum aestivum cv. WinterHawk, inoculated 1 hour after treatment, evaluated 16 days later. Type of assay: in vivo.
The subject of assay [3] is Phakopsora pachyrhizi. The experiment in a line: Foliar protection test for Asian soybean rust control. Type of assay: in vivo. The settings on record: foliar application to soybean (Glycine max AG4832), percent disease area evaluated 14 days later.
For assay [4], the system named is Diplodia maydis (Dm). The experiment in a line: In vitro pathogen growth inhibition assay, Dm. As to conditions: Stenocarpella maydis, 48 h, ≥90% growth inhibition; 48 hours; vs 2% DMSO control; read-out: Compound Concentration (ppm) sufficient for ≥90% inhibition of Dm. Type of assay: cell-based. Put shortly:
(§1)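 Spores in 17% V8 liquid medium, or 1.5 mm Rs mycelial plugs in ¼ PDB, incubated with compound; final concentration checked by OD600 for precipitation. OD readings at 24 and 48 h, blank-subtracted, plus visual ratings; value is concentration giving ≥90% growth inhibition.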

Assay [5] deals with Fusarium graminearum. The class given is in vivo. The settings on record: spray on flowering Triticum aestivum cv. Samson, inoculated 24 hours after treatment, evaluated 14 days later.
The test system of assay [6] is Blumeria graminis f. sp. hordei. The experiment in a line: Foliar protection test for barley powdery mildew control. The class given is in vivo. The settings on record: foliar spray on Hordeum vulgare cv. Perry, inoculated 24 hours after treatment, evaluated 7 days later. In outline:
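Protective foliar test: compound atomized onto both leaf surfaces of 6-day-old Hordeum vulgare cv. Perry, followed after 24 h by spore-cloud inoculation from colonized untreated plants. Disease rated on leaves 7 days on, plants held at 20 to 22° C and 70% RH.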

The test system of assay [7] is Phytophthora capsici (Pc). The experiment in a line: In vitro pathogen growth inhibition assay, Pc. The class given is cell-based. As to conditions: 48 h, ≥90% growth inhibition, 48 hours, vs 2% DMSO control, read-out: Compound Concentration (ppm) sufficient for ≥90% inhibition of Pc. Put shortly: as §1
In assay [8] the test system is Sphaerotheca fuliginea. The experiment in a line: Foliar protection for cucumber powdery mildew control. Type of assay: in vivo. As to conditions: foliar spray on Cucumis sativus cv. Straight Eight, inoculated 24 hours after treatment, evaluated 7 days later. Put shortly:
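Protective foliar spray on 10-day-old Straight Eight cucumbers, with S. fuliginea spores dusted from infected stock plants 24 h after treatment. Disease developed at 23–27 °C, 60% RH and a 16 h photoperiod. Leaves were rated for mildew growth after 7 days; test rates 10 ppm or below.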

For assay [9], the system named is Fusarium virguliforme (Fv). The assay can be described thus: In vitro pathogen growth inhibition assay, Fv. As to conditions: ≥90% growth inhibition, 48 hours, vs 2% DMSO control, read-out: Compound Concentration (ppm) sufficient for ≥90% inhibition of Fv. The class given is cell-based. Put shortly: as §1
Assay [10] relates to Botrtyis cinerea (Bc). The experiment in a line: In vitro pathogen growth inhibition assay, Bc. Type of assay: cell-based. As to conditions: 48 h, ≥90% growth inhibition; 48 hours; vs 2% DMSO control; read-out: Compound Concentration (ppm) sufficient for ≥90% inhibition of Bc. In outline:
(§2)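 Value reported is the compound concentration reaching ≥90% growth inhibition, from OD readings at 24 and 48 h after blank subtraction, confirmed visually. Inoculum was spores diluted in 17% V8 medium, except Rs, using 1.5 mm mycelial plugs in ¼ PDB; actual compound concentration corrected via OD600.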

Assay [11] deals with Collectotrichum graminicola (Cg). The experiment in a line: In vitro pathogen growth inhibition assay, Cg. The class given is cell-based. The settings on record: 48 h, ≥90% growth inhibition; 48 hours; vs 2% DMSO control; read-out: Compound Concentration (ppm) sufficient for ≥90% inhibition of Cg. In outline: as §2
Assay [12] concerns Rhizoctonia solani (Rs). The assay can be described thus: In vitro pathogen growth inhibition assay, Rs (mycelial plugs). The class given is cell-based. As to conditions: Rhizoctonia solani, 48 h, ≥90% growth inhibition; mycelial plugs; 48 hours; vs 2% DMSO control; read-out: Compound Concentration (ppm) sufficient for ≥90% inhibition of Rs. Put shortly:
as §1

The test system of assay [13] is Fusarium moniliforme (Fm). The assay can be described thus: In vitro pathogen growth inhibition assay, Fm. The class given is cell-based. The settings on record: Fusarium verticillioides; ≥90% growth inhibition; 48 hours; vs 2% DMSO control; read-out: Compound Concentration (ppm) sufficient for ≥90% inhibition of Fm. In outline:
as §2

The subject of assay [14] is Septoria tritici (St). The experiment in a line: In vitro pathogen growth inhibition assay, St. Type of assay: cell-based. As to conditions: Zymoseptoria tritici, 48 h, ≥90% growth inhibition; 48 hours; vs 2% DMSO control; read-out: Compound Concentration (ppm) sufficient for ≥90% inhibition of St. In outline: as §2

For `COc1ccc(F)cc1[C@H](Cn1c(=O)n([C@H](C)C(=O)NC(C)C)c(=O)c2c(C)c(-n3nccn3)sc21)OCCC#N` [Compound I-198, (R)-2-(1-((R)-2-(2-cyanoethoxy)-2-(5-fluoro-2-methoxyphenyl)ethyl)-5-methyl-2,4-dioxo-6-(2H-1,2,3-triazol-2-yl)-1,4-dihydrothieno[2,3-d]pyrimidin-3 (2H)-yl)-N-isopropylpropanamide], the “Wheat Leaf Rust Control at a compound concentration of 10 ppm or lower” value (“Wheat Leaf Rust Control … of 10 ppm or lower” below) in [1] was “AA (≥85% control of wheat leaf rust)”. In addition, the “Septoria Leaf Blotch Control at a compound concentration of 25 ppm or lower” value in assay [2] is given as “AA (≥85% control of wheat septoria leaf blotch)”. The “Asian Soybean Rust Control at a compound concentration of 25 ppm or lower” value (“Asian Soybean Rust Control … of 25 ppm or lower” below) in assay [3] was “AA (≥85% control of Asian soybean rust)”. For the same molecule, the IC90 was determined as 0.08 µg/mL (≈ 0.137 µM) in assay [4]; 2 µg/mL (≈ 3.43 µM) in assay [7]; 0.4 µg/mL (≈ 0.685 µM) in [9]; 0.4 µg/mL (≈ 0.685 µM) in assay [10]; 0.08 µg/mL (≈ 0.137 µM) in [11]; 0.08 µg/mL (≈ 0.137 µM) in assay [12]. Further, the results for the IC90 in assay [13] and in [14] were 0.08 µg/mL (≈ 0.137 µM) and at least 2 µg/mL, respectively. In addition, the “Wheat Fusarium Head Blight Control at a compound concentration of 25 ppm or lower” value in [5] is listed as “C (from 25 to 49% control of wheat fusarium head blight)”. In assay [6], the “Barley Powdery Mildew Control at a compound concentration of 10 ppm or lower” value is recorded as “AA (≥85% control of barley powdery mildew)”. For the same molecule, the “Cucumber Powdery Mildew Control at a compound concentration of 10 ppm or lower” value in [8] is “AA (≥85% control of cucumber powdery mildew)”.
In the case of `COc1ccc(F)cc1[C@H](Cn1c(=O)n([C@H](C)C(=O)N2CCCC2)c(=O)c2c(C)c(-n3nccn3)sc21)OCCC#N` [Compound I-202, 3-((R)-1-(5-fluoro-2-methoxyphenyl)-2-(5-methyl-2,4-dioxo-3-((R)-1-oxo-1-(pyrrolidin-1-yl)propan-2-yl)-6-(2H-1,2,3-triazol-2-yl)-3,4-dihydrothieno[2,3-d]pyrimidin-1(2H)-yl)ethoxy)propanenitrile], in [1], the “Wheat Leaf Rust Control … of 10 ppm or lower” value is given as “A (from 70% to 84% control of wheat leaf rust)”. The “Septoria Leaf Blotch Control at a compound concentration of 25 ppm or lower” value in assay [2] is reported as “D (<25% control of wheat septoria leaf blotch)”. The “Asian Soybean Rust Control … of 25 ppm or lower” value in assay [3] is reported as “A (from 70% to 84% control of Asian soybean rust)”. The IC90 was 2 µg/mL (≈ 3.36 µM) in assay [4]; at least 50 µg/mL in assay [7]; 0.4 µg/mL (≈ 0.672 µM) in assay [9]; at least 0.4 µg/mL in assay [10]; 2 µg/mL (≈ 3.36 µM) in assay [11]; 0.4 µg/mL (≈ 0.672 µM) in assay [12]. The results for the IC90 in assay [13] and in assay [14] were 0.08 µg/mL (≈ 0.134 µM) and above 50 µg/mL, respectively. Further, the “Wheat Fusarium Head Blight Control at a compound concentration of 25 ppm or lower” value in assay [5] is given as “D (<25% control of wheat fusarium head blight)”. Further, the “Barley Powdery Mildew Control at a compound concentration of 10 ppm or lower” value in [6] is listed as “A (from 70% to 84% control of barley powdery mildew)”. Moreover, in [8], the “Cucumber Powdery Mildew Control at a compound concentration of 10 ppm or lower” value is given as “AA (≥85% control of cucumber powdery mildew)”.
For the molecule `CCNC(=O)C(C)(C)n1c(=O)c2c(C)c(-n3nccn3)sc2n(C[C@H](OCCC#N)c2ccccc2OC)c1=O` [Compound I-208, (R)-2-(1-(2-(2-cyanoethoxy)-2-(2-methoxyphenyl)ethyl)-5-methyl-2,4-dioxo-6-(2H-1,2,3-triazol-2-yl)-1,4-dihydrothieno[2,3-d]pyrimidin-3 (2H)-yl)-N-ethyl-2-methylpropanamide], in [1], the “Wheat Leaf Rust Control … of 10 ppm or lower” value is “AA (≥85% control of wheat leaf rust)”. Besides, in assay [2], the “Septoria Leaf Blotch Control at a compound concentration of 25 ppm or lower” value is “AA (≥85% control of wheat septoria leaf blotch)”. In assay [3], the “Asian Soybean Rust Control … of 25 ppm or lower” value is listed as “AA (≥85% control of Asian soybean rust)”. Also, the IC90 in [4] is 2 µg/mL (≈ 3.54 µM); in assay [7], above 50 µg/mL; in [9] it was 0.4 µg/mL (≈ 0.707 µM); in assay [10] it was 0.4 µg/mL (≈ 0.707 µM); in assay [11], 2 µg/mL (≈ 3.54 µM); in assay [12], 0.08 µg/mL (≈ 0.141 µM). Besides, the IC90 in assay [13] is 0.4 µg/mL (≈ 0.707 µM); in assay [14] it was above 50 µg/mL. In [5], the “Wheat Fusarium Head Blight Control at a compound concentration of 25 ppm or lower” value is on record as “C (from 25 to 49% control of wheat fusarium head blight)”. Also, the “Barley Powdery Mildew Control at a compound concentration of 10 ppm or lower” value in assay [6] was “AA (≥85% control of barley powdery mildew)”. In addition, the “Cucumber Powdery Mildew Control at a compound concentration of 10 ppm or lower” value in assay [8] is “AA (≥85% control of cucumber powdery mildew)”.
